This passage reports EC50 results from patent publication US8765730B2 (Hoffmann-La Roche Inc, priority 2010, dated 2014).

In the experiment the target is T1, human GPBAR1 receptor (Homo sapiens, UniProt Q8TDU6).
T1 construct: expressed in transfected cells
T1 sequence (Q8TDU6 1-330): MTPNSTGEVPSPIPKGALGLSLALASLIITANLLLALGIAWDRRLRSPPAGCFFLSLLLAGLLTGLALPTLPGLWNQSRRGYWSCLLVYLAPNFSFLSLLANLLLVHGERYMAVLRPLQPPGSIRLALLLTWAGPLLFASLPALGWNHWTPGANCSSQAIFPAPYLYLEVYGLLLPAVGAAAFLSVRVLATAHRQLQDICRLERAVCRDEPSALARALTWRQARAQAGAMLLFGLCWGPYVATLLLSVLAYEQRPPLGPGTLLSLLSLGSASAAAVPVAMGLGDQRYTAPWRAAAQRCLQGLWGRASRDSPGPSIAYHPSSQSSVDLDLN
Briefly: functional cAMP assay in CHO-dhfr(minus) cells expressing human GPBAR1 receptors. It is filed as cell-based. As to conditions: human EC50, functional cAMP assay, 30 min at 30° C. Summed up: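 Agonist cAMP read-out: stable GPBAR1 CHO-dhfr− clone, 30 min compound exposure at 30° C following 30 min IBMX (1 mM) preincubation in Krebs Ringer bicarbonate. Time-resolved energy-transfer detection gives EC50; parental CHO cells serve as counter-screen.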
On the technique in general: cAMP levels reflect the balance of adenylyl cyclase and phosphodiesterase activity.

Broadly, the EC50 is the concentration at which the effect is half-maximal. Higher therefore signals a need for much substance. `Cc1cc(/C(C[C@H](c2ccc(CC(=O)NCCO)cc2)c2ccccc2C)=N/O)ccn1` [Example 289, N-(2-Hydroxy-ethyl)-2-{4-[(R)-3-[(E)-hydroxyimino]-3-(2-methyl-pyridin-4-yl)-1-o-tolyl-propyl]-phenyl}-acetamide] came in with an EC50 of 23 nM.

For the molecule `Cc1ccccc1[C@H](C/C(=N\O)c1ccnc(Cl)c1)c1ccc(-c2ccc(C(=O)O)cc2)cc1` [Example 290, 4′-{(R)-3-(2-Chloro-pyridin-4-yl)-3-[(E)-hydroxyimino]-1-o-tolyl-propyl}-biphenyl-4-carboxylic acid], the concentration for a half-maximal effect (EC50) came out at 37 nM. Against the preceding molecule, the EC50 is about 1.6-fold higher.

`Cc1ccccc1[C@H](C/C(=N\O)c1ccnc(C(F)(F)F)c1)c1ccc(-c2ccc(C(=O)O)cc2)cc1` [Example 291, 4′-[(R)-3-[(E)-Hydroxyimino]-1-o-tolyl-3-(2-trifluoromethyl-pyridin-4-yl)-propyl]-biphenyl-4-carboxylic acid] had an EC50 of 365 nM.

`Cc1ccccc1[C@H](C/C(=N\O)c1cc(Cl)ncc1F)c1ccc(-c2ccc(C(=O)O)cc2)cc1` [Example 292, 4′-{(R)-3-(2-Chloro-5-fluoro-pyridin-4-yl)-3-[(E)-hydroxyimino]-1-o-tolyl-propyl}-biphenyl-4-carboxylic acid]: the EC50 turned out to be 6 nM. Consider `Cc1ccccc1[C@H](C/C(=N\O)c1cc(F)ncc1Cl)c1ccc(-c2ccc(C(=O)O)cc2)cc1` [Example 293, 4′-{(R)-3-(5-Chloro-2-fluoro-pyridin-4-yl)-3-[(E)-hydroxyimino]-1-o-tolyl-propyl}-biphenyl-4-carboxylic acid], for which it took 12 nM to reach a half-maximal effect (EC50). Turning to `Cc1cc(/C(C[C@H](c2ccc(-c3ccc(C(=O)O)cc3)cc2)c2ccccc2C)=N/O)cc(C)n1` [Example 294, 4′-{(R)-3-(2,6-Dimethyl-pyridin-4-yl)-3-[(E)-hydroxyimino]-1-o-tolyl-propyl}-biphenyl-4-carboxylic acid], the EC50 was determined as 21 nM. In turn, `Cc1cc(/C(C[C@@H](c2ccc(-c3ccc(C(=O)O)cc3)cc2)c2ccc(Cl)cc2C)=N/O)ccn1` [Example 296, 4′-[(S)-1-(4-Chloro-2-methyl-phenyl)-3-[(E)-hydroxyimino]-3-(2-methyl-pyridin-4-yl)-propyl]-biphenyl-4-carboxylic acid] yielded an EC50 of 32 nM. The molecule `Cc1cc(/C(C[C@H](c2ccc(-c3ccc(C(=O)O)cc3)cc2)c2ccc(Cl)cc2C)=N/O)ccn1` [Example 297, 4′-[(R)-1-(4-Chloro-2-methyl-phenyl)-3-[(E)-hydroxyimino]-3-(2-methyl-pyridin-4-yl)-propyl]-biphenyl-4-carboxylic acid] displayed an EC50 of 13 nM.

On to `Cc1ccccc1[C@H](C/C(Cc1ccncc1)=N\O)c1ccc(-c2ccc(C(=O)O)cc2)cc1` [Example 298, 4′-{(R)-3-[(E)-Hydroxyimino]-4-pyridin-4-yl-1-o-tolyl-butyl}-biphenyl-4-carboxylic acid], for which the EC50 was determined as 411 nM. In the case of `Cc1cc(/C(C[C@H](c2ccc(N3CCCC3=O)cc2)c2ccccc2C)=N/O)ccn1` [Example 299, 1-{4-[(R)-3-[(E)-Hydroxyimino]-3-(2-methyl-pyridin-4-yl)-1-o-tolyl-propyl]-phenyl}-pyrrolidin-2-one] it was 28 nM. `Cc1cc(/C(C[C@H](c2ccc(N[C@H]3C[C@@H](C(=O)O)C3)cc2)c2ccccc2C)=N/O)ccn1` [Example 300, 3-{4-[(R)-3-[(E)-Hydroxyimino]-3-(2-methyl-pyridin-4-yl)-1-o-tolyl-propyl]-phenylamino}-cyclobutanecarboxylic acid]: the EC50 worked out at 55 nM. This EC50 is about 2-fold higher than that of the molecule before. The molecule `Cc1ccccc1C(C/C(=N\O)c1ccc(=O)n(C)c1)c1ccc(C(=O)N[C@H](C)CO)cc1` (stereo partly drawn) [Example 301, 4-((E)-3-(Hydroxyimino)-3-(1-methyl-6-oxo-1,6-dihydropyridin-3-yl)-1-o-tolylpropyl)-N-((R)-1-hydroxypropan-2-yl)benzamide] came in with an EC50 of 4100 nM. `Cc1ccccc1C(C/C(=N\O)c1ccc(=O)n(C)c1)c1ccc(C(=O)N[C@@H](C)CO)cc1` (stereo partly drawn) [Example 302, 4-((E)-3-(Hydroxyimino)-3-(1-methyl-6-oxo-1,6-dihydropyridin-3-yl)-1-o-tolylpropyl)-N—((S)-1-hydroxypropan-2-yl)benzamide] showed an EC50 of 320 nM. Against the preceding molecule, the EC50 is about 13-fold lower.

`Cc1ccccc1C(C/C(=N\O)c1ccc(=O)n(C)c1)c1ccc(C(=O)NC(C)(C)CO)cc1` (centres unmarked) [Example 303, (E)-N-(1-Hydroxy-2-methylpropan-2-yl)-4-(3-(hydroxyimino)-3-(1-methyl-6-oxo-1,6-dihydropyridin-3-yl)-1-o-tolylpropyl)benzamide] returned an EC50 of 816 nM.

`Cc1ccccc1C(C/C(=N\O)c1ccc(=O)n(C)c1)c1ccc(C(=O)NC(CO)CO)cc1` (centres unmarked) [Example 304, (E)-N-(1,3-Dihydroxypropan-2-yl)-4-(3-(hydroxyimino)-3-(1-methyl-6-oxo-1,6-dihydropyridin-3-yl)-1-o-tolylpropyl)benzamide] yielded an EC50 of 506 nM. This EC50 lies about 1.6-fold lower than the previous one. `Cc1ccccc1C(C/C(=N\O)c1ccc(=O)n(C)c1)c1ccc(C(=O)N[C@@H](CO)C(C)C)cc1` (stereo partly drawn) [Example 305, N—((R)-1-hydroxy-3-methylbutan-2-yl)-4-((E)-3-(hydroxyimino)-3-(1-methyl-6-oxo-1,6-dihydropyridin-3-yl)-1-o-tolylpropyl)benzamide] displayed an EC50 of 1630 nM. In turn, `Cc1ccccc1C(C/C(=N\O)c1ccc(=O)n(C)c1)c1ccc(C(=O)NC[C@@H](O)CO)cc1` (stereo partly drawn) [Example 307, N—((R)-2,3-Dihydroxypropyl)-4-((E)-3-(hydroxyimino)-3-(1-methyl-6-oxo-1,6-dihydro-pyridin-3-yl)-1-o-tolylpropyl)benzamide] gave an EC50 of 116 nM. For the molecule `Cc1ccccc1C(C/C(=N\O)c1ccc(=O)n(C)c1)c1ccc(C(=O)NC2(CO)CC2)cc1` (centres unmarked) [Example 308, (E)-4-(3-(Hydroxyimino)-3-(1-methyl-6-oxo-1,6-dihydropyridin-3-yl)-1-o-tolylpropyl)-N-(1-(hydroxymethyl)cyclopropyl)benzamide], the EC50 is 592 nM.

`Cc1ccccc1C(C/C(=N\O)c1ccc(=O)n(C)c1)c1ccc(C(=O)NCC(O)C(F)(F)F)cc1` (centres unmarked) [Example 309, (E)-4-(3-(Hydroxyimino)-3-(1-methyl-6-oxo-1,6-dihydropyridin-3-yl)-1-o-tolylpropyl)-N-(3,3,3-trifluoro-2-hydroxypropyl)benzamide] gave an EC50 of 130 nM. `Cc1ccccc1C(C/C(=N\O)c1ccc(=O)n(C)c1)c1ccc(C(=O)NCCS(C)(=O)=O)cc1` (centres unmarked) [Example 310, (E)-4-(3-(Hydroxyimino)-3-(1-methyl-6-oxo-1,6-dihydropyridin-3-yl)-1-o-tolylpropyl)-N-(2-(methylsulfonyl)ethyl)benzamide]: the EC50 was 153 nM. The same measure for `Cn1cc(/C(CC(c2ccc(C(=O)NCCO)cc2)c2ccc(Cl)cc2F)=N/O)ccc1=O` (centres unmarked) [Example 311, 4-[1-(4-Chloro-2-fluoro-phenyl)-3-[(E)-hydroxyimino]-3-(1-methyl-6-oxo-1,6-dihydro-pyridin-3-yl)-propyl]-N-(2-hydroxy-ethyl)-benzamide]: 253 nM; for `Cn1cc(/C(CC(c2ccc(C(=O)NC[C@@H](O)CO)cc2)c2ccc(Cl)cc2F)=N/O)ccc1=O` (stereo partly drawn) [Example 312, 4-((E)-1-(4-Chloro-2-fluorophenyl)-3-(hydroxyimino)-3-(1-methyl-6-oxo-1,6-dihydropyridin-3-yl)propyl)-N—((R)-2,3-dihydroxypropyl)benzamide]: 326 nM; for `Cn1cc(/C(CC(c2ccc(C(=O)NCCS(C)(=O)=O)cc2)c2ccc(Cl)cc2F)=N/O)ccc1=O` (centres unmarked) [Example 313, 4-[1-(4-Chloro-2-fluoro-phenyl)-3-[(E)-hydroxyimino]-3-(1-methyl-6-oxo-1,6-dihydro-pyridin-3-yl)-propyl]-N-(2-methanesulfonyl-ethyl)-benzamide]: 266 nM. In the case of `Cn1cc(/C(CC(c2ccc(S(C)(=O)=O)cc2)c2ccc(Cl)cc2F)=N/O)ccc1=O` (centres unmarked) [Example 314, (E)-5-(3-(4-chloro-2-fluorophenyl)-1-(hydroxyimino)-3-(4-(methylsulfonyl)phenyl)propyl)-1-methylpyridin-2(1H)-one] it was 84 nM; in that of `Cn1cc(/C(CC(c2cccc(S(C)(=O)=O)c2)c2ccc(Cl)cc2F)=N/O)ccc1=O` (centres unmarked) [Example 315, (E)-5-(3-(4-Chloro-2-fluorophenyl)-1-(hydroxyimino)-3-(3-(methylsulfonyl)phenyl)propyl)-1-methylpyridin-2(1H)-one], 647 nM. Take `CCS(=O)(=O)c1ccc(C(C/C(=N\O)c2ccc(=O)n(C)c2)c2ccc(Cl)cc2F)cc1` (centres unmarked) [Example 316, (E)-5-(3-(4-Chloro-2-fluorophenyl)-3-(4-(ethylsulfonyl)phenyl)-1-(hydroxyimino)propyl)-1-methylpyridin-2(1H)-one]: a half-maximal effect (EC50) was put at 319 nM. This EC50 is about 2-fold lower than that of the molecule before. Consider `Cn1cc(/C(CC(c2ccc(CO)cc2)c2ccc(Cl)cc2F)=N/O)ccc1=O` (centres unmarked) [Example 317, (E)-5-(3-(4-chloro-2-fluorophenyl)-1-(hydroxyimino)-3-(4-(hydroxymethyl)phenyl)propyl)-1-methylpyridin-2(1H)-one], for which the EC50 turned out to be 10 nM. `Cn1cc(/C(CC(c2ccc(O)cc2)c2ccc(Cl)cc2F)=N/O)ccc1=O` (centres unmarked) [Example 318, (E)-5-(3-(4-Chloro-2-fluorophenyl)-1-(hydroxyimino)-3-(4-hydroxyphenyl)propyl)-1-methylpyridin-2(1H)-one] gave an EC50 of 193 nM. Against the preceding molecule, the EC50 is about 19-fold higher. Molecule `CC(=O)Nc1cccc(C(C/C(=N\O)c2ccc(=O)n(C)c2)c2ccc(Cl)cc2F)c1` (centres unmarked) [Example 319, (E)-N-(3-(1-(4-Chloro-2-fluorophenyl)-3-(hydroxyimino)-3-(1-methyl-6-oxo-1,6-dihydropyridin-3-yl)propyl)phenyl)acetamide] had a 50% effective concentration (EC50) of 2520 nM.
